The values that follow come from patent publication US7132422B2, “Sodium channel modulators” (Theravance, Inc., priority 2001, dated 2006).

This test has as its system spinal nerve ligation (SNL) rats. In words: In vivo pain model: spinal nerve ligation (SNL), 50% withdrawal threshold with von Frey filaments. To be noted: intraperitoneal dose of approximately 30 mg/kg.
Experimental: Male Sprague-Dawley rats (120–180 g, Harlan, Indianapolis, Ind.) are pre-screened to determine their baseline 50% withdrawal threshold using a set of von Frey filaments. The 50% withdrawal threshold for mechanical stimulation to the hind paw is determined by the up-down method described by Dixon W. J., Ann.
An abrupt withdrawal of the foot during stimulation or immediately after the removal of stimulus is considered a positive response.
Whenever there is a positive or negative response, the next weaker or stronger filament is applied, respectively. The test is continued until six stimuli after the first change in response has been obtained. […] In the cases where continuous positive or negative responses are observed all the way out to the end of the stimulus spectrum, values of 0.3 g or 15.0 g are assigned, respectively.
After pre-screening, rats which display a 50% withdrawal threshold greater than 8 g are acceptable for surgery. The spinal nerve ligation (SNL) surgery is carried out as follows. Rats are anesthetized with inhaled Isoflurance and the left L5 and L6 spinal nerves are tightly ligated with 6-0 silk thread. Postoperatively, rats are placed under a heat lamp until motor function returns and then single-housed. At 5–7 days post surgery, rats are re-tested to determine their post-surgery 50% withdrawal threshold. Rats which consistently display (2 or more days) a 50% withdrawal threshold less than 4.5 g are considered acceptable for compound investigation.
Compounds are formulated in saline for injection and pH adjusted with dilute sodium hydroxide. Groups sizes are normally 5 or 6 rats. […] At 1, 3, and 6 hours post administration, the 50% withdrawal threshold is determined by an investigator who is blinded to the treatment groups. If at 6 hours, some prolonged activity is present, i.e., 50% withdrawal thresholds greater than 8 g, then later timepoints may be attempted (normally at 12 and 24 hours). Compounds can also be administered orally to determine oral activity.
As for `Cc1ccccc1OCC(C)(N)COc1ccccc1C` [Compound 1], the “effectiveness for treating pain / activity in the in vivo pain model” value is reported as “demonstrated effectiveness for treating pain”.
For `Cc1cccc(Cl)c1OCC(C)(N)COc1c(C)cccc1Cl` [Compound 5], the “effectiveness for treating pain / activity in the in vivo pain model” value is “some activity”.
Consider `CC(N)(COc1c(F)cc(F)cc1F)COc1c(F)cc(F)cc1F` [Compound 6], for which the “effectiveness for treating pain / activity in the in vivo pain model” value is listed as “not active”.
As for `Cc1ccccc1OCC(N)COc1ccccc1C` [Compound 8], the entry is “not active”; as for `Cc1cccc(C)c1OCC(N)COc1c(F)cc(F)cc1F` (stereo not drawn) [Compound 11], “some activity”; as for `Cc1cccc(C)c1OCC(COc1c(C)cccc1C)NCCc1ccncc1` [Compound 79], “not active”.
